Experimental data taken from ChEMBL document CHEMBL1201862, “PubChem BioAssay data set” (2004).
Activity calls are given as the source filed them.

Key:
cells [1] = assay type: functional, cell-based
cells [2] = assay type: functional, cell-based; remark: listed apart in the source
cells [3] = assay type: functional, cell-based; remark: listed apart in the source
[4] = target: T1, Nuclear receptor subfamily 0 group B member 1 (Homo sapiens, UniProt P51843); assay type: functional, cell-based;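 also: HEK293T cells transfected with SF-1 and DAX-1 plus StAR promoter luciferase reporter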
T1 sequence (P51843 whole entry): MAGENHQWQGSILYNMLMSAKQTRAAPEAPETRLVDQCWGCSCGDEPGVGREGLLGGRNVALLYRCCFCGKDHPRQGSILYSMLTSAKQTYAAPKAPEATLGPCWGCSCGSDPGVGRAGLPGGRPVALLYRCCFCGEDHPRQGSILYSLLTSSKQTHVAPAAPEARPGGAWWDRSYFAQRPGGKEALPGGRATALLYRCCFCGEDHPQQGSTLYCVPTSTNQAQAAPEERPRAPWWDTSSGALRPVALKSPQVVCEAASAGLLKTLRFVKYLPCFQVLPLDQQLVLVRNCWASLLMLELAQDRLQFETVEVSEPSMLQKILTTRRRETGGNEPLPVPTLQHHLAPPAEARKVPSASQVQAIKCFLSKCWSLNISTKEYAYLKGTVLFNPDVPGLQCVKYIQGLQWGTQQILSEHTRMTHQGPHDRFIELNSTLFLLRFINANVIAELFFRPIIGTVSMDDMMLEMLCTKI

[5] = Luminescence Cell-Based Dose Confirmation HTS to Identify Activators of 5'UTR Stem-Loop Driven Alpha-Synuclein mRNA Translation in H4 Neuroglioblastoma Cells. [Related pubchem assays: 1829 (Project Summary), 1814 (Primary HTS)]; assay type: functional
[6] = Luminescence Cell-Based Dose Response HTS to Identify Activators of Luciferase Translation or Activity in H4 […] Cells. [Related pubchem assays: 1829 (Project Summary), 1814 (Primary HTS)]; assay type: functional
H4 = assay: Luminescence Cell-Based Dose Response HTS to Identify Activators of 5'UTR Stem-Loop Driven Prion Protein mRNA Translation in H4 Neuroglioblastoma Cells. [Related pubchem assays: 1829 (Project Summary), 1814 (Primary HTS)]; assay type: functional; conditions: Homo sapiens
Cytochrome P450 2C19 = Cytochrome P450 2C19 (Homo sapiens, UniProt P33261); assay: Cytochrome panel assay with activity outcomes. Panel member name: p450-cyp2c19 Compounds with AC50 equal or less than 10 uM are considered active; assay type: functional; conditions: read-out: AC50
Chain of Cytochrome P450 2C19 (P33261 whole entry): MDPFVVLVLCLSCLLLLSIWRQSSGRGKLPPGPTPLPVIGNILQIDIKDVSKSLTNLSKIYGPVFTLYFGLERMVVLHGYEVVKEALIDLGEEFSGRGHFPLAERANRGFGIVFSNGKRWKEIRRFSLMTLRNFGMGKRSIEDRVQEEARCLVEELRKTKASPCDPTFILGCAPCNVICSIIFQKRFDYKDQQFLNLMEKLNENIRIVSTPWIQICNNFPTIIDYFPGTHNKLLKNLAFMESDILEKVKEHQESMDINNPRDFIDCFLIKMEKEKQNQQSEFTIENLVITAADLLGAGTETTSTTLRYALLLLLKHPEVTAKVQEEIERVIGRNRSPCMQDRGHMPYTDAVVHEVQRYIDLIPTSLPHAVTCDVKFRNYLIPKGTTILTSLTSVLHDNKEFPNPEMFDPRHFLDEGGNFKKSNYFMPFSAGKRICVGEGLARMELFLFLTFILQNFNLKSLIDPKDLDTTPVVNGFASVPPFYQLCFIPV

[7] = target: 26S proteasome non-ATPase regulatory subunit 14 (Homo sapiens, UniProt O00487); assay: inhibition of proteasome subunit RPN11 – biochemical, fluorescence polarization, uHTS hits, confirmation (AID 602368); assay type: functional
Chain of 26S proteasome non-ATPase regulatory subunit 14 (O00487 whole entry): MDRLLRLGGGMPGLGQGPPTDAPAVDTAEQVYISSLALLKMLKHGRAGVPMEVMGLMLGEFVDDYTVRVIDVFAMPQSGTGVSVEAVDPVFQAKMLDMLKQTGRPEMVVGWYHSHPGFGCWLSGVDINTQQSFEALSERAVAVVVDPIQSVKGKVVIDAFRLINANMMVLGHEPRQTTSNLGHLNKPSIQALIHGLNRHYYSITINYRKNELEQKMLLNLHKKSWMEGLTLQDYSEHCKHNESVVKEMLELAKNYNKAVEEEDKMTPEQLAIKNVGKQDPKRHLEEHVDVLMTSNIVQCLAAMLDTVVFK

[8] = target: 72 kDa type IV collagenase (Homo sapiens, UniProt P08253); assay: Dose Response validation of uHTS RPN11 inhibitor hits using a MMP-2 Fluorescence assay.; assay type: functional
Chain of 72 kDa type IV collagenase (P08253 whole entry): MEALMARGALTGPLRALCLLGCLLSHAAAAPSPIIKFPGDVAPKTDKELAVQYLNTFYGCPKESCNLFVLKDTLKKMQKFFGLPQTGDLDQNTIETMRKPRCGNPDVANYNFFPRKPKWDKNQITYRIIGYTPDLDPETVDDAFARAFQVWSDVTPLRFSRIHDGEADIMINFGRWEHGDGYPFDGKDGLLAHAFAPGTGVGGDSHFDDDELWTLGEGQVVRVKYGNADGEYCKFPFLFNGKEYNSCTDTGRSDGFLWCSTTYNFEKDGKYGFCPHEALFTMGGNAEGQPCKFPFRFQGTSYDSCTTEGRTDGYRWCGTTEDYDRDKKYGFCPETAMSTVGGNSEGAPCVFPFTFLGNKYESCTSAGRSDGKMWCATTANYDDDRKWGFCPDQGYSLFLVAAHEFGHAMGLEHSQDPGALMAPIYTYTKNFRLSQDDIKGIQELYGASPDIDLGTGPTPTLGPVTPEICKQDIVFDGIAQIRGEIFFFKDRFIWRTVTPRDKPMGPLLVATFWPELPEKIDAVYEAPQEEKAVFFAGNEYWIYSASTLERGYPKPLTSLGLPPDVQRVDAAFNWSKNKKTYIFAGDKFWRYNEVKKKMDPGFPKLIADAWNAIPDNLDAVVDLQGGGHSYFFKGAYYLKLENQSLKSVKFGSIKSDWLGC

Prothrombin = Prothrombin (Bos taurus, UniProt P00735); assay: thrombin protease inhibitors – biochemical, fluorescence polarization, uHTS hits, dose response (AID 602369); assay type: functional
Cytochrome P450 3A4 = Cytochrome P450 3A4 (Homo sapiens, UniProt P08684);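 also: CYP3A4 tested as one member of a cytochrome P450 panel screen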
Chain of Cytochrome P450 3A4 (P08684 whole entry): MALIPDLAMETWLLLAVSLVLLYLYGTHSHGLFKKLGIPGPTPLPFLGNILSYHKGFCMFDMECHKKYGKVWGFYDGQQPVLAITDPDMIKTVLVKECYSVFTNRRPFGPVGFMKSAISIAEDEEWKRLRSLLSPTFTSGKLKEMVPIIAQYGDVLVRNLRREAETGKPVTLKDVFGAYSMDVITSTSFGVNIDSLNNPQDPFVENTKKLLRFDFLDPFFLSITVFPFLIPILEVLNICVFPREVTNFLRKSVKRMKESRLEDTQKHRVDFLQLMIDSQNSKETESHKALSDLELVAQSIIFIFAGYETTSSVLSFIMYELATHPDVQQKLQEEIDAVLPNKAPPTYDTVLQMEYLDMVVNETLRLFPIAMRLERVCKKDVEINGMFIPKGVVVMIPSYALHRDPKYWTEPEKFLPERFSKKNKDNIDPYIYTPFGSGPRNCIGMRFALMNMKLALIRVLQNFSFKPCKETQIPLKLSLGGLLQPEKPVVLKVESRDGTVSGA

Cytochrome P450 2C9 = Cytochrome P450 2C9 (Homo sapiens, UniProt P11712)
Chain of Cytochrome P450 2C9 (P11712 whole entry): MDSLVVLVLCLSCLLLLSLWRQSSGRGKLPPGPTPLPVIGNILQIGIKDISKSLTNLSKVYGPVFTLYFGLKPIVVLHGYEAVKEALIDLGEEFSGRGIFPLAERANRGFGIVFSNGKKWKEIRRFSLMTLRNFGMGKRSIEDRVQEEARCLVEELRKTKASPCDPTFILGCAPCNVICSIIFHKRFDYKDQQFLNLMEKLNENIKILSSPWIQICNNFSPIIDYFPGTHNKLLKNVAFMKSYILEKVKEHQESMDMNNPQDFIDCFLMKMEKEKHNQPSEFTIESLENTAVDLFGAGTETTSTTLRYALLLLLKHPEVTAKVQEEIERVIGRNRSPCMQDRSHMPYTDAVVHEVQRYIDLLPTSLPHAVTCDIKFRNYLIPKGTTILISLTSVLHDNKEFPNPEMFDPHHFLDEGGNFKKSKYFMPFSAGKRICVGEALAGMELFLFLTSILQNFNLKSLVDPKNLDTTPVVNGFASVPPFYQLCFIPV

Melanocortin receptor 4 = Melanocortin receptor 4 (Homo sapiens, UniProt P32245); assay type: functional, cell-based;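 also: Cell-based assay with luminescence read-out, confirmatory dose-response testing for agonist activity of biased ligands at MC4R; human U2OS cells with tagged receptor and beta-arrestin; potency of agonists that increase receptor coupling to beta-arrestin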
Chain of Melanocortin receptor 4 (P32245 whole entry): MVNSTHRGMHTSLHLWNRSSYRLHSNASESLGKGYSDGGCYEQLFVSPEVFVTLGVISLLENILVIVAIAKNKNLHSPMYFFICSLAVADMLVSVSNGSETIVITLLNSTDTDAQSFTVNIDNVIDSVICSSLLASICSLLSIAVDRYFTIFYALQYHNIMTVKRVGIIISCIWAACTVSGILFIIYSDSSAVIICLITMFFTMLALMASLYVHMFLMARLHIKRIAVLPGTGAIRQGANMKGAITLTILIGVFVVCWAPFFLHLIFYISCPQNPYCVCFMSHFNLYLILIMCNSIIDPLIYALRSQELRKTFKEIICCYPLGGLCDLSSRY

[9] = target: T2, Probable nicotinate-nucleotide adenylyltransferase (Staphylococcus aureus (strain N315), UniProt P65502); assay type: functional, Staphylococcus aureus subsp. aureus N315;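 as to IC50 Mean: confirmatory dose-response retesting of NadD inhibitor hits first found in an ultra-high-throughput screen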
T2 sequence (P65502 whole entry): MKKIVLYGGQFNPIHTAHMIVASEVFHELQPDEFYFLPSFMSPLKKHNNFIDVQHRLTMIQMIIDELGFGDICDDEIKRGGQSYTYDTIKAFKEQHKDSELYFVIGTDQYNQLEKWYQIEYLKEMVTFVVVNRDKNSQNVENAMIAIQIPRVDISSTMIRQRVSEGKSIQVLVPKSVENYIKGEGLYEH

[10] = target: T2, Probable nicotinate-nucleotide adenylyltransferase; assay type: functional, Staphylococcus aureus subsp. aureus N315; conditions: read-out: IC50_Mean
HeLa [11] = assay: ATP-based viability loss in HeLa cells – cell-based, CellTiter-Glo luminescence, cherry-pick samples, cytotoxicity control for MITF activator project, dose response (AID 540259); assay type: functional; conditions: Homo sapiens
H9c2 = assay: cells; assay type: functional, cell-based; conditions: Rattus norvegicus, H9c2, Myocardium;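 also: confirmatory concentration-response retest of ultra-high-throughput screening hits for modulation of myocardial damage; cell death induced by hydrogen peroxide oxidative stress; compound pretreatment for 60 min then peroxide exposure for 2 h; potency is for protecting the cells against peroxide damage rather than for killing them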
[12] = target: Disintegrin and metalloproteinase domain-containing protein 17 (Homo sapiens, UniProt P78536); assay: exosite inhibitors of ADAM17, dose response, biochemical (AID 743260)
Chain of Disintegrin and metalloproteinase domain-containing protein 17 (P78536 whole entry, the tested form may be a part): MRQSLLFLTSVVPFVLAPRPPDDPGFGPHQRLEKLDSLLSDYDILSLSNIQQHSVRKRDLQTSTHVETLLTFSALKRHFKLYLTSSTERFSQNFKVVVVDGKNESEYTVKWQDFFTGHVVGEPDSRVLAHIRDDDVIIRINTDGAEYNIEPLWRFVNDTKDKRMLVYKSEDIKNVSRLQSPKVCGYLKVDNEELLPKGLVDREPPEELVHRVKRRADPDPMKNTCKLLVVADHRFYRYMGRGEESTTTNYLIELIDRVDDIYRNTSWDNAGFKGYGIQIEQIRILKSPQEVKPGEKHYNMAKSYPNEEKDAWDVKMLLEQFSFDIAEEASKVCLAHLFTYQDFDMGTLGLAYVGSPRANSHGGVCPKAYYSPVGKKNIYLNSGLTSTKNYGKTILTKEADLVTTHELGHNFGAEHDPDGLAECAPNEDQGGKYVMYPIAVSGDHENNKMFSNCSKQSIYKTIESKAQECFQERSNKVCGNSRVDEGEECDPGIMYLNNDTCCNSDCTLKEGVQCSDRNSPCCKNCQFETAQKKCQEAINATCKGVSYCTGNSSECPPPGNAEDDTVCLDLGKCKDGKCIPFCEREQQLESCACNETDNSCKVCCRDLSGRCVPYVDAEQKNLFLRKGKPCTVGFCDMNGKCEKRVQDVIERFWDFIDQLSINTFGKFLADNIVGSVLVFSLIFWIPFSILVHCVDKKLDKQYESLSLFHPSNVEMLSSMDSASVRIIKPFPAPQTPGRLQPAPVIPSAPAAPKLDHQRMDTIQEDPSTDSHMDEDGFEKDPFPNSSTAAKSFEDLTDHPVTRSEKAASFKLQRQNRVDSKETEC

[13] = inhibition of ADAM10 peptide cleavage – biochemical, FRET peptide substrate, recombinant human ADAM10, selectivity assay for ADAM17 exosite inhibitor project, dose response (AID 743259);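 also: ADAM10 enzyme cleaving a FRET peptide substrate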
HeLa [14] = assay: viability loss in HeLa cells – cell-based, ATP luminescence, cherry-pick samples, cytotoxicity control, dose response (AID 687004); assay type: functional; conditions: Homo sapiens
[15] = target: Induced myeloid leukemia cell differentiation protein Mcl-1 (Homo sapiens, UniProt Q07820); assay type: functional
Chain of Induced myeloid leukemia cell differentiation protein Mcl-1 (Q07820 whole entry, the tested form may be a part): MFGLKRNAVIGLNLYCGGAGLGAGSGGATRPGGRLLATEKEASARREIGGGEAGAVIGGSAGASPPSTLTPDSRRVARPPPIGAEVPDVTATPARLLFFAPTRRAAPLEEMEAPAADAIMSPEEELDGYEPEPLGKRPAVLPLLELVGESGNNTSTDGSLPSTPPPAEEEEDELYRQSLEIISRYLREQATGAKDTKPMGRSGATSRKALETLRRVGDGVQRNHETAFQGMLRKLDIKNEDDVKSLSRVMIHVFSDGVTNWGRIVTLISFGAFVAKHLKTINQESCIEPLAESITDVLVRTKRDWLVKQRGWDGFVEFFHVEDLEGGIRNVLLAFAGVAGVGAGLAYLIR

[16] = target: T3, Carboxy-terminal domain RNA polymerase II polypeptide A small phosphatase 1 (Homo sapiens, UniProt Q9GZU7); assay: CTDSP1 inhibitors, concentration-response, biochemical, absorbance readout, ultra-high-throughput screen actives (AID 540297); assay type: functional
T3 sequence (Q9GZU7 whole entry): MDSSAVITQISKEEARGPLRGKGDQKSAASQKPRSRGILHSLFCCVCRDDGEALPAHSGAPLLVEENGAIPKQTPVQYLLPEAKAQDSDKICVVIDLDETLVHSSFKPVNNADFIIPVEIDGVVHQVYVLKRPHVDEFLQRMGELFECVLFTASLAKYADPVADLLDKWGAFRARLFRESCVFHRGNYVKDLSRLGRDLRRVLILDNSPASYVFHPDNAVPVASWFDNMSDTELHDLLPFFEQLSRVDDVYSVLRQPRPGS

[17] = viability of uninfected HEp-2 cells – cell-based, HTS, cytotoxicity control for RSV inhibitor project, dose response (AID 2410); assay type: functional; conditions: human respiratory syncytial virus
[18] = target: T4, High affinity choline transporter 1 (Homo sapiens, UniProt Q9GZV3); assay: human choline transporter blockers, potency – cell-based, 5-point CRC, membrane potential dye, dose response (AID 504840); assay type: functional
T4 sequence (Q9GZV3 whole entry): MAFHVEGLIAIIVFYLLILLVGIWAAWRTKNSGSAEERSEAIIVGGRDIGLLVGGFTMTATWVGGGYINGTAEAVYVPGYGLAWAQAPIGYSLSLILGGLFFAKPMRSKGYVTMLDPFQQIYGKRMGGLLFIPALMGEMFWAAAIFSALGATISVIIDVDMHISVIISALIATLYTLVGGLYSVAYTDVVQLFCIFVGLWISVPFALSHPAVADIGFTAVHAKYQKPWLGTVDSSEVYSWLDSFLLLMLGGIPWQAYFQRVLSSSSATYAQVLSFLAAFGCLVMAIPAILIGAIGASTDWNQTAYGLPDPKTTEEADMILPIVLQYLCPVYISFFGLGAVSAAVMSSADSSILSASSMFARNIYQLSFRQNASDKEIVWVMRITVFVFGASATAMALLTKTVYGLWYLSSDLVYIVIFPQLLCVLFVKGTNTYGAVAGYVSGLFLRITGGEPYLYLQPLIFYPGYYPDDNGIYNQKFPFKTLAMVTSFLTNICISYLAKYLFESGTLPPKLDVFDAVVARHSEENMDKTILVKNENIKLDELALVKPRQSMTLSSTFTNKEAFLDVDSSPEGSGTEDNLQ

Vero = assay: cells; assay type: functional; conditions: Chlorocebus sabaeus

Cc1nn(C(=O)CCC(=O)NCCc2ccccc2)c2ccccc12
IC50 (cells [1]): > 29.9 µM (inactive)
EC50 (cells [2]): > 29.9 µM (inactive)

COc1ccc(-n2nc3cc(C)c(NC(C)=O)cc3n2)cc1
IC50 (cells [3]): > 67.6 µM (inactive)
IC50 [4]: > 0.278 µM (active)

CCc1ccc(-c2cc(C(=O)NCc3ccco3)c3ccccc3n2)s1
EC50 [5]: 11.2 µM (active)
EC50 [6]: 5.65 µM (active)
EC50 (H4): 23.9 µM (active)
AC50 (Cytochrome P450 2C19): 4.47 µM (inconclusive)
IC50 [7]: 40.7 µM (active)
IC50 [8]: > 100 µM (inactive)
IC50 (Prothrombin): 55.8 µM (active)
AC50 (Cytochrome P450 3A4): 15.8 µM (inconclusive)
AC50 (Cytochrome P450 2C9): 2 µM (inconclusive)

CCOCCCN(Cc1ccco1)C(=O)c1cc2c(=O)[nH]c3ccc(C)cc3c2s1
EC50 (Melanocortin receptor 4): > 89.2 µM (inactive)

NC(CSC1(c2cccc3ccccc23)c2ccccc2-c2ccccc21)C(=O)O (stereo not drawn)
IC50 [9]: 9.51 µM (active)
IC50 [10]: 27.7 µM (active)

CCCCNc1ccc2c(c1)C1CC2CCN1C(=O)OCc1ccccc1 (stereo not drawn)
AC50 (HeLa [11]): 76.2 µM (active)
IC50 (cells [3]): > 67.5 µM (inactive)
IC50 [4]: > 67.5 µM (inactive)

Cc1ccc([S+]([O-])Cc2ccc(C(=O)N3CCN(C4CCCCC4)CC3)o2)cc1 (stereo not drawn)
IC50 (cells [3]): > 67.6 µM (inactive)
IC50 [4]: > 67.6 µM (inactive)

COc1ccccc1-c1cc(NC(C)=O)c2ncc(-c3cccc(C(C)=O)c3)n2c1
IC50 (H9c2): > 79 µM (inactive)
EC50 (Melanocortin receptor 4): > 89.2 µM (inactive)

O=C1NC(=O)C(c2ccc(Cl)cc2)N1 (stereo not drawn)
IC50 [12]: > 69.4 µM (inactive)
IC50 [13]: > 69.4 µM (inactive)

COc1cccc(C(NC(C)=O)c2nc(-c3ccc4ccccc4c3)cs2)c1 (stereo not drawn)
IC50 [12]: > 69.5 µM (inactive)
IC50 [13]: 18.5 µM (inactive)

C[C@@H]1CN([C@@H](C)CO)C(=O)Cc2cc(NS(=O)(=O)c3ccccc3)ccc2O[C@@H]1CN(C)Cc1ccc(Cl)c(Cl)c1
AC50 (HeLa [14]): 43.7 µM (active)

C[C@H](CO)N1C[C@H](C)[C@@H](CN(C)Cc2ccncc2)Oc2ccc(NC(=O)CCC(F)(F)F)cc2C1=O
AC50 (HeLa [14]): 23.4 µM (active)

O=C(N/N=C\C=C\c1ccco1)c1cc(-c2ccc3ccccc3c2)[nH]n1
IC50 [15]: 3.98 µM (active)
IC50 [16]: 2.96 µM (active)
IC50 [9]: 6.68 µM (active)
IC50 [10]: 20.3 µM (active)

CN1C(=O)/C(=N\c2ccc(O)cc2)c2c3ccccc3c(O)c3cccc1c23
CC50 [17]: 16.8 µM (active)
IC50 [18]: 12.3 µM (active)
CC50 (Vero): > 25 µM (active)
IC50 [12]: > 69.5 µM (inactive)
IC50 [13]: 28.9 µM (inactive)
